Data set [1] can be described thus: Ex vivo biodistribution by methylene blue fluorescence of harvested organs. The note with it: ex vivo IVIS fluorescence after euthanasia.
Description: The vital organs of the subjects were harvested after euthanasia and analyzed for fluorescence from the methylene blue for biodistribution studies.
After the subject was euthanized, the heart, lungs, liver, spleen, kidneys, and tumor were harvested and rinsed in PBS. The organs were then imaged for fluorescence signal via IVIS Perkin-Elmer Illumination and LivingImage software.
For another data set, the system named is HEK 293T cells. Briefly: Competitive inhibition flow cytometry with αVβ5 primary antibodies. It is filed as cell-based, human. As for the experimental part: The peptide formulations were further challenged via competitive inhibition flow cytometry studies to confirm their specific interactions with integrin receptors (Fig. 3b, c). In addition to labeling as before, some cells were pre-incubated with αVβ5 primary antibodies before iRGD-BNPs or iRGD-SNPs. […] There was no observable change in fluorescence from the presence of the antibodies for HEK 293-T cells.
300,000 cells were seeded overnight. For the competitive inhibition samples, cell cultures were first treated with αVβ5 mABs ([…]) for 90 min. The cells were then treated with the iRGD-BNPs, iR GD-SNPs, or methylene blue. The cells were detached, collected at 700xG, and the media was decanted while the cells were resuspended in ice cold buffer for flow cytometry using the APC channel.

For data set [2] the following is noted: methylene blue reference value used for the relative measurement; no reference given; cited from earlier work. From the text: The optical and photoacoustic properties of the assemblies were also studied (Fig. 4). When the nanospheres and branched NPs were scanned from 400 to 700 nm for optical absorbance, both adopted a similar peak absorbance to methylene blue at 662 nm. When the peaks were normalized, there was no 614 nm shoulder growth where dimerization typically forms. While the iRGD-BNP maintained methylene blue’s distinct blue color, the iRGD-SNP samples shifted to a slightly greener color. The quantum yield for the branched NPs and the nanospheres relative to methylene blue (52%) were 43% and 31%, respect ...

Consider `CN(C)c1ccc2nc3ccc(=[N+](C)C)cc-3sc2c1` [methylene blue], for which, in data set [1], the “fluorescence in vital organs” value was “nonspecific and low fluorescence in all of the vital organs”. Moreover, the “change in fluorescence with αVβ5 antibody pre-incubation” value in the data set with HEK 293T cells is “no change in fluorescence increase”. In addition, the “quantum yield of reference” value in data set [2] is recorded as 52%.
